{
  "source": "patent US4185106A",
  "about": "“Pyridones as antidandruff agents” (Hoechst Aktiengesellschaft, priority 1972, dated 1980)",
  "key": {"LD50 toxicity comparison": {"assay": "LD50 toxicity comparison", "text": "[formula] a=ethanolamine salt of 1-hydroxy-4,6-dimethyl-2-pyridone b=zinc salt of 1-hydroxy-4,6-dimethyl-2-pyridone c=zinc salt of 1-hydroxy-4-methyl-6-(2,4,4-trimethyl-pentyl)2-pyridone d=ethanolamine salt of 1-hydroxy-4-methyl-6-cyclohexyl-2-pyridone, administered in starch mucilage e=zinc salt of 1-hydroxy-4-methyl-6-cyclohexyl-2-pyridoneand [formula]"}, "dandruff": {"tested_on": "dandruff", "conditions": "half-side washing repeated over several weeks at determined intervals"}, "[1]": {"conditions": "prior art compounds, cited from earlier work"}, "skin": {"tested_on": "skin", "conditions": "J. Soc. Cosmet. Chem. 23 (1972), pages 100, 112; cited from earlier work"}},
  "note": "Counter-ions that a name gives are not always drawn.",
  "data": [
    {"smiles": "Cc1cc(C)n([O-])c(=O)c1.Cc1cc(C)n([O-])c(=O)c1.[Zn+2]", "note": "[b, zinc salt of 1-hydroxy-4,6-dimethyl-2-pyridone]", "values": [
      {"measurement": "LD50", "setting": "LD50 toxicity comparison; species and route not given", "value": "more than 6400 mg/kg"}
    ]},
    {"smiles": "Cc1cc(CC(C)CC(C)(C)C)n([O-])c(=O)c1.Cc1cc(CC(C)CC(C)(C)C)n([O-])c(=O)c1.[Zn+2]", "note": "(stereo not drawn) [c, zinc salt of 1-hydroxy-4-methyl-6-(2,4,4-trimethyl-pentyl)2-pyridone]", "values": [
      {"measurement": "LD50", "setting": "LD50 toxicity comparison; species and route not given", "value": "more than 6400 mg/kg"}
    ]},
    {"smiles": "Cc1cc(C2CCCCC2)n(O)c(=O)c1", "note": "[d, ethanolamine salt of 1-hydroxy-4-methyl-6-cyclohexyl-2-pyridone]", "values": [
      {"measurement": "LD50", "setting": "LD50 toxicity comparison; in vivo", "value": 5500, "unit": "mg/kg"}
    ]},
    {"smiles": "[O-]n1ccccc1=S.[O-]n1ccccc1=S.[Zn+2]", "note": "[g, zinc salt of 1-hydroxy-2-pyridine-thione]", "values": [
      {"measurement": "LD50", "setting": "LD50 toxicity comparison; species and route not given", "value": 700, "unit": "mg/kg"},
      {"measurement": "removal of dandruff after standardized washing", "setting": "dandruff", "value": "dandruff still showed in many cases"},
      {"measurement": "sensitivity to oxidation", "setting": "[1]; mild oxidizing agents form 2,2'-dithio-bis(pyridine-1-oxide)", "value": "sensitive to oxidation"}
    ]},
    {"smiles": "On1ccccc1=S.[Na]", "note": "[sodium-1-hydroxy-2-pyridine-thione]", "values": [
      {"measurement": "stability to hydrolysis", "setting": "[1]", "value": "not stable to hydrolysis"},
      {"measurement": "dermal toxicity", "setting": "skin", "value": "considerable dermal toxicity"}
    ]},
    {"smiles": "On1ccccc1=S", "note": "[1-hydroxy-2-pyridine-thione]", "values": [
      {"measurement": "stability to heat", "setting": "[1]", "value": "sensitive to heat"},
      {"measurement": "stability to light", "setting": "[1]", "value": "not stable to light"}
    ]},
    {"smiles": "Cc1cc(C2CCCCC2)n([O-])c(=O)c1.Cc1cc(C2CCCCC2)n([O-])c(=O)c1.[Zn+2]", "note": "[e, zinc salt of 1-hydroxy-4-methyl-6-cyclohexyl-2-pyridone]", "values": [
      {"measurement": "LD50", "setting": "LD50 toxicity comparison; species and route not given", "value": "more than 6400 mg/kg"}
    ]},
    {"smiles": "Cc1cc(C)n(O)c(=O)c1", "note": "[a, ethanolamine salt of 1-hydroxy-4,6-dimethyl-2-pyridone]", "values": [
      {"measurement": "LD50", "setting": "LD50 toxicity comparison; in vivo", "value": "> 4480", "unit": "mg/kg"}
    ]}
  ]
}
